# Test results: patent EP4353088A1, “COMPOSITIONS OR COMBINED PREPARATIONS OF ESSENTIAL OILS AND L-CARNITINE” (Servicio Andaluz de Salud, priority 2022, dated 2024)
# Assays:
# [1] = test system: cardiovascular disease markers; assay: Cardiovascular markers in plasma (Mouse CVD Magnetic Bead Panel 1); type: in vivo, mice; details: L-carnitine (0.02%, w/v) in drinking water for 40 days; carnitine group vs control group
# Experimental: (§1) A humanized gnotobiotic mouse model was developed through the fecal microbiota transplantation of human feces into germ-free mice. Prior to the transplantation procedure, 18-week-old mice (n = 40) were orally treated by gavage with 200 µL of antibiotic cocktail composed of vancomycin (5 mg mL^-1), neomycin, metronidazole and ampicillin 155 (10 mg mL^-1) in order to deplete the bacterial content. An all-bacteria qPCR was performed with universal 16S rRNA primers that detect a broad range of bacterial species to verify complete absence of detectable bacteria in the feces.
# (§2) Then, mice received a fecal microbiota transplantation from a selection of patients to recolonize the gastrointestinal tract, as previously described. Specifically, three patients with IHD, T2DM and high plasma levels of TMAO were eligible for feces donation. Fresh fecal samples were suspended in sterile phosphate buffered saline (PBS) and glycerol was added at 10 % (v/v) final concentration; then, samples were aliquoted into cryotubes and immediately stored at -80 °C. At the moment of the transplantation, aliquot samples from these patients were thawed in ice and mixed in equal quantities as a sample pool to guarantee that every mouse received a similar microbiota load. […]
# [2] = test system: protein carbonyls and pentosidine; assay: Protein carbonyls (AAS, GGS) and pentosidine in plasma (fluorescent HPLC); type: in vivo, mice; details: L-carnitine (0.02%, w/v) in drinking water for 40 days; carnitine group vs control group
# Experimental: as §1
# as §2, with “load. The sample pool was centrifuged for 2 minutes at 2,800 xg, and the supernatant was transferred to mice by oral gavage for three consecutive days according to previously published protocols. Mice were moved to clean cages every two days to minimize the coprophagia and to prevent reinoculation from old feces.” for “load.”
# gut microbiota = assay: Fecal microbiota analysis by 16S rRNA gene sequencing in humanized gnotobiotic mice; type: in vivo
# Experimental: A humanized gnotobiotic mouse model was developed through the fecal microbiota transplantation of human feces into germ-free mice. Prior to the transplantation procedure, 18-week-old mice (n = 40) were orally treated by gavage with 200 μL of antibiotic cocktail composed of vancomycin (5 mg mL^-1), neomycin, metronidazole and ampicillin 155 (10 mg mL^-1) in order to deplete the bacterial content. An all-bacteria qPCR was performed with universal 16S rRNA primers that detect a broad range of bacterial species to verify complete absence of detectable bacteria in the feces. Then, mice received a fecal microbiota transplantation from a selection of patients to recolonize the gastrointestinal tract, as previously described. Specifically, three patients with IHD, T2DM and high plasma levels of TMAO were eligible for feces donation. Fresh fecal samples were suspended in sterile phosphate buffered saline (PBS) and glycerol was added at 10 % (v/v) final concentration; then, samples were aliquoted into cryotubes and immediately stored at -80 °C. At the moment of the transplantation, aliquot samples from these patients were thawed in ice and mixed in equal quantities as a sample pool to guarantee that every mouse received a similar microbiota load. The sample pool was centrifuged for 2 minutes at 2,800 xg, and the supernatant was transferred to mice by oral gavage for three consecutive days according to previously published protocols. Mice were moved to clean cages every two days to minimize the coprophagia and to prevent reinoculation from old feces. […]
# TMA and TMAO = assay: L-carnitine, TMA and TMAO levels in plasma (LC-MS) of humanized gnotobiotic mice; type: in vivo; details: L-carnitine (0.02%, w/v) in drinking water for 40 days; carnitine group vs control group
# Experimental: as §1
# as §2, with “load. The sample pool was centrifuged for 2 minutes at 2,800 xg, and the supernatant was transferred to mice by oral gavage for three consecutive days according to previously published protocols. Mice were moved to clean cages every two days to minimize the coprophagia and to prevent reinoculation from old feces.” for “load.”
# cytokines and chemokines = assay: Cytokines and chemokines in plasma (ProcartaPlex 26-Plex); type: in vivo, mice; details: L-carnitine (0.02%, w/v) in drinking water for 40 days
# Experimental: as §1, §2
# SCFA species = SCFA species in feces (GC-FID) of humanized gnotobiotic mice; type: in vivo; details: L-carnitine (0.02%, w/v) in drinking water for 40 days; carnitine group vs control group
# Experimental: as §1, §2
# [3] = genus level, fecal samples, among control, carnitine, savory, parsley and rosemary groups, 40 days
compound,measurement,setting,value
"C[N+](C)(C)C[C@H](O)CC(=O)[O-] [carnitine, L-carnitine]","plasma cardiovascular disease markers (Se-selectin, sICAM-1, Precam-1, sP-selectin, PAI-1 and thrombomodulin)",[1],no significant differences
same,plasma levels of AAS,[2],no significant effects
same,plasma levels of GGS,[2],no significant effects
same,plasma pentosidine levels,[2],no differences
same,relative abundance at the family and genus levels,"gut microbiota; L-carnitine (0.02%, w/v) in drinking water for 40 days, carnitine group vs control group",no differences
same,Chao1 index (alpha diversity),gut microbiota; [3],no significant differences
same,Shannon index (alpha diversity),gut microbiota; [3],no significant differences
same,plasma L-carnitine levels,TMA and TMAO,significant increase
same,plasma TMA levels,TMA and TMAO,significant increase
same,plasma TMAO levels,TMA and TMAO,no significant differences
same,plasma IFNγ levels,cytokines and chemokines; carnitine group vs control group,significant increase
same,plasma CXCL10 levels,cytokines and chemokines; vs control group,significant increase
same,"fecal levels of SCFA species (acetic, butyric and propionic acids)",SCFA species,no significant differences
